Reference: ChEMBL document CHEMBL4480390, “Cink4T, a quinazolinone-based dual inhibitor of Cdk4 and tubulin polymerization, identified via ligand-based virtual screening, for efficient anticancer therapy” (Eur J Med Chem, 2019)
The source made the active and inactive calls. No cut-off for these calls is given here.

Biological target: Tubulin (Sus scrofa) (UniProt P02554+P02550)
Test: Inhibition of porcine tubulin polymerization at 3 uM incubated for 1 min by fluorescence based assay
Format: protein assay

Tubulin (Sus scrofa), sequence (P02550 whole entry, looked up): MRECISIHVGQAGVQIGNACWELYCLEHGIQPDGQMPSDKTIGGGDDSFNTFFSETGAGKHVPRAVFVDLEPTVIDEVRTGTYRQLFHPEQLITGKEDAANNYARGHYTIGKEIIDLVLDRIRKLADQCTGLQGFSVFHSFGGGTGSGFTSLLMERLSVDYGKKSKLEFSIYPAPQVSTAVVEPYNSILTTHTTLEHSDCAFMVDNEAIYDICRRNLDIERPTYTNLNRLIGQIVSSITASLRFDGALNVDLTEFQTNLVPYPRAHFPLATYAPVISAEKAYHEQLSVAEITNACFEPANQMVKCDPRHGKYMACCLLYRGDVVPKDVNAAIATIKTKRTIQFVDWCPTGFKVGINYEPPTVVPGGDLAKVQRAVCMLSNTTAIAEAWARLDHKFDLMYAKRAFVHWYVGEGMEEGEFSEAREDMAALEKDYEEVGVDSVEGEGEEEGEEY
Tubulin (Sus scrofa), sequence (P02554 whole entry, looked up): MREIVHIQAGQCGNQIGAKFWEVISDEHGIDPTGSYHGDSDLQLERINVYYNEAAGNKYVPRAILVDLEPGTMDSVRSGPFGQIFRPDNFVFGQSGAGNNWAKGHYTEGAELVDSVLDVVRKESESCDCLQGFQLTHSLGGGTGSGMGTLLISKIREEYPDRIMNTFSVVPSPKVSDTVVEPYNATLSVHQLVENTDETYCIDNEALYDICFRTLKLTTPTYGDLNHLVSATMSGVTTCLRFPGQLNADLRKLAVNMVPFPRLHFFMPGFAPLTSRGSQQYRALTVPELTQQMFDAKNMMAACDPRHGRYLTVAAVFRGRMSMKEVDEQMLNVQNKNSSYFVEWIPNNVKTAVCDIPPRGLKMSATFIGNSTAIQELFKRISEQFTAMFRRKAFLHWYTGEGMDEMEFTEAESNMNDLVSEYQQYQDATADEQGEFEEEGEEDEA

For `CC(=O)O[C@H]1C(=O)[C@@]2(C)[C@H]([C@H](OC(=O)c3ccccc3)[C@]3(O)C[C@H](OC(=O)[C@H](O)[C@@H](NC(=O)c4ccccc4)c4ccccc4)C(C)=C1C3(C)C)[C@]1(OC(C)=O)CO[C@@H]1C[C@@H]2O`, the inhibition was “inactive”.
In the case of `CC[C@]1(O)C[C@@H]2CN(CCc3c([nH]c4ccccc34)[C@@](C(=O)OC)(c3cc4c(cc3OC)N(C)[C@H]3[C@@](O)(C(=O)OC)[C@H](OC(C)=O)[C@]5(CC)C=CCN6CC[C@]43[C@@H]65)C2)C1`, the inhibition is reported as “Active”.
